Measured values from PubChem BioAssay (NCI).
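Grown in 96-well plates, cells were treated for 48 hours with each compound at five concentrations. Insufficient inhibition: endpoint recorded as highest concentration tested. GI50 marks 50% less growth. TGI denotes the concentration required for complete inhibition of growth.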

Key:
Test in all cases: NCI-60 cell line screen, 48 h
DU-145 prostate = tested on: DU-145 prostate
MCF7 breast = tested on: MCF7 breast
PC-3 prostate = tested on: PC-3 prostate
T-47D breast = tested on: T-47D breast
HS 578T breast = tested on: HS 578T breast
LXFL 529 NSCLC = tested on: LXFL 529 NSCLC
DMS 114 small cell lung = tested on: DMS 114 small cell lung
SNB-78 CNS = tested on: SNB-78 CNS
DLD-1 colon = tested on: DLD-1 colon

Compound	GI50 (DU-145 prostate) [µM]	TGI (DU-145 prostate) [µM]	GI50 (MCF7 breast) [µM]	TGI (MCF7 breast) [µM]	GI50 (PC-3 prostate) [µM]	TGI (PC-3 prostate) [µM]	GI50 (T-47D breast) [µM]	TGI (T-47D breast) [µM]	GI50 (HS 578T breast) [µM]	TGI (HS 578T breast) [µM]	TGI (LXFL 529 NSCLC) [µM]	TGI (DMS 114 small cell lung) [µM]	TGI (SNB-78 CNS) [µM]	TGI (DLD-1 colon) [µM]
Cc1cccc2c(=O)c3c(sc12)c(NCCCN)nc1ccccc13	1.39	2.78	1.11	2.57	1.37	3.04	1.5	3.44	–	–	–	–	–	–
CCC(CO)Nc1nc(NCc2ccccc2)c2n[nH]c(C(C)C)c2n1 (stereo unspecified)	3.73	16.6	5.92	25.9	7.01	31.5	16	41.2	11.6	34.3	–	–	–	–
C=C(C)[C@@H]1C/C=C(/COC(C)=O)CC[C@H]2O[C@@]2(C)CC/C=C(\C)CC1	> 100	> 100	81	> 100	> 100	> 100	> 100	> 100	> 100	> 100	–	–	–	–
CC1=NC(C)=C(/C(C)=N/NC(=O)c2ccccc2O)C(C)/C1=C(/C)NNC(=O)c1ccccc1O (stereo unspecified)	–	–	–	–	–	–	–	–	–	–	> 100	44.1	> 100	> 100
C/C(COc1ccc2oc(-c3ccccc3)cc(=O)c2c1)=N\O	48.5	> 100	10.1	36.7	26.6	70.5	16.2	> 100	–	–	–	–	–	–
NC(=O)c1ccc(I)c([N+](=O)[O-])c1	> 95.3	> 100	> 80.5	> 100	> 100	> 100	35.8	> 100	> 66.2	> 100	–	–	–	–
Oc1ccc(Br)cc1C=NC1CCCCC1	–	> 100	–	> 100	–	> 100	–	75.5	–	> 100	–	–	–	–
COc1cc(OCCCN2CCCC2)ccc1Nc1ncc(Cl)c(Nc2ccccc2P(C)(C)=O)n1	1.91	36.4	0.867	19.3	4.11	49.6	8.71	54.3	2.22	10	–	–	–	–
COc1ccc(-c2oc3ncnc(N)c3c2-c2ccc(NC(=O)Nc3cc(C(F)(F)F)ccc3F)cc2)cc1	1.14	4.16	0.675	3.21	1.94	11.4	1.94	10.1	0.833	4.67	–	–	–	–
CC(=O)CCc1ccc(Oc2c3ccccc3nc3occc23)cc1	14.8	34.1	21.3	46.3	14	41	2.3	22.6	20.4	44.5	–	–	–	–
O=c1oc2ccc(F)cc2c(=O)n1-c1ccc(I)cc1F	0.497	26.4	0.762	9.03	1.48	6.58	0.29	9.24	0.352	2.52	–	–	–	–
C#Cc1cccc(Nc2nc(C)nc3cc(NC(=O)CCl)ccc23)c1	3.67	7.08	0.836	4.05	2.53	6.16	3.17	7.69	2.8	10.2	–	–	–	–
COC(=O)C(/C(=N/N)C(=O)Nc1cc(Cl)ccc1Cl)c1nc2ccc([N+](=O)[O-])cc2[nH]c1=O (stereo unspecified)	–	–	–	–	–	–	–	–	–	–	> 100	> 100	> 100	–
O=C(Nc1ccc(Cl)cc1)c1cc(NCc2cc(O)ccc2O)ccc1O	13.2	26.9	3.87	25.5	1.89	4.92	2.05	5.24	9.12	55.7	–	–	–	–
CC(=O)N(N=O)c1ccc(N(N=O)C(C)=O)cc1	–	–	–	–	–	–	–	–	–	–	> 100	> 100	> 100	> 100
CCCCCCCCCCCCCCCCCC1=NC(C)(C)CN1C(C)(C)CO	1.61	3.03	–	–	1.85	4.81	2.3	5.55	1.62	3.98	–	–	–	–
COc1ccc(Cc2ccc3[nH]c(=O)cc(C)c3c2)cc1S(=O)(=O)O	–	> 100	–	> 100	–	> 100	–	> 100	–	> 100	–	–	–	–
O=C(O)c1nn(-c2ccc(Cl)cc2)c2c1C(=O)c1ccccc1C2=O	–	> 100	–	> 100	–	> 100	–	> 100	–	> 100	–	–	–	–
CC(C)(C)c1cc[n+](C[n+]2ccc(C(C)(C)C)cc2)cc1	–	> 100	–	> 100	–	> 100	–	> 100	–	> 100	–	–	–	–
CC1(C)N=C(N)N=C(N)N1c1cccc(CCCCc2ccc(Cl)c(S(=O)(=O)F)c2)c1	4.09	17.1	3.28	17.7	–	–	13.8	30.9	12.6	35.9	–	–	–	–
CCCCNC(=O)Oc1ccc(/C(=C(\C)c2ccc(OC)cc2)c2ccc(OCCN3CCCCC3)cc2)cc1	6.5	21.4	0.0721	3.99	2.35	7.03	1.24	6.37	2.14	4.82	–	–	–	–
FC(F)(F)c1cccc(Oc2ccc(Nc3ncnc4ccc(OCCCN5CCOCC5)cc34)cc2Cl)c1	2.42	10.3	1.74	5.17	2.4	8.58	1.29	6.35	–	–	–	–	–	–
Cc1cc(C)c([I+]c2c(C)cc(C)cc2C)c(C)c1	0.622	2.02	0.325	1.46	0.259	1.14	0.406	2.19	0.795	2.68	–	–	–	–
Oc1cccc2ccc(SSc3ccc4cccc(O)c4n3)nc12	–	> 100	–	18.9	–	29.9	–	38.6	–	> 100	–	–	–	–
